Assay results: PubChem BioAssay AID1963842 (Molecular Pharmacology Branch, DTP, NCI, 2024)
pIC50: −log10 of the molar value. “And” between values parts separate entries of the source, which are not always exact repeats. Equal entries are not always repeated.

System: 677734-321-R-J1-PDC complex spheroid viability
Experiment: Anticancer human tumor 677734-321-R-J1-PDC patient-derived soft tissue sarcoma cell line growth inhibition [POLQ]
Details: for viability, T/C: stronger effect = lower value
Procedure: Multicellular complex tumor spheroid response to Polymerase (POL) inhibitors (novobiocin, ART-558, RP6685) in combination with a variety of drugs and investigational agents in selected tumor cell lines
The POL inhibitors (novobiocin, ART-558, and RP6685) were evaluated both individually and in combination with standard of care and investigational anticancer small molecules within a complex spheroid model of solid tumors. . Complex spheroids include a stromal component modeled by human endothelial cells (HUVEC) and fibroblasts modeled by human mesenchymal stem cells (MSCs). The concentration ranges selected for each drug and investigational agent were based upon clinically achievable concentrations if the clinical Cmax of the agent was known.
Compounds. The drugs and investigational agents: novobiocin (NSC847541), ART-558 (NSC835418), RP-6685 (NSC848927), peposertib (NSC802822), ceralasertib (NSC780249), elimusertib (NSC800525), camonsertib (NSC841442), AZD-1390 (NSC803789), olaparib (NSC753686), talazoparib (NSC767125), rucaparib (NSC756644), sotorasib (NSC818433), MRTX-1133 (NSC836407), SN-38 (NSC673596), topotecan (NSC609699), epotoside (NSC141540), doxorubicin (NSC123127), gemcitabine (NSC613327), 5-fluorouracil (NSC19893), paclitaxel (NSC125973), vemurafenib (NSC761431), MSA-2 (NSC828583), SN-011 (NSC837082), adavosertib (NSC754352), prexasertib (NSC758257), carboplatin (NSC241240) and oxaliplatin (NSC266046), were obtained from the National Cancer Institute (NCI) Developmental Therapeutics Program Chemical Repository (21). The FDA-approved anticancer drug set is available from the Developmental Therapeutics Program at https://dtp.cancer.gov/organization/dscb/obtaining/. […] The stock solutions were prepared in dimethyl sulfoxide (DMSO, Sigma-Aldrich, St. Louis, MO, cat. D2650), except for the platinum compounds which were prepared in saline (Quality Biological, Gaithersburg, MD, cat. 114-055-101), at 800-fold the tested concentration and stored at -70 degrees C prior to their use. All drugs and investigational agents were tested over a range starting from a high concentration at or near the clinical Cmax and decreasing in half-log increments. If the clinical Cmax for an agent had not been determined, the highest concentration tested was 10 microM, except for SN-38, which was tested at a high concentration of 1 microM.
Cell Culture. All cells were maintained in an incubator at 37 degrees C and 5% CO2 with 95% humidity. The PDC lines were cultured according to standard operating procedures established by the NCI PDMR (https://pdmr.cancer.gov). Table 3 of the manuscript, lists the cell lines along with the number of the three cell types plated to form the mct-spheroids and media for tumor cell growth. After thawing, all PDC lines, except 997537-175-T-J1-PDC and 415267-285-R-J2-PDC, were cultured in Matrigel-coated flasks prepared with a working solution of 1X Ham's F-12 nutrient mix, without supplementation (Thermo Fisher Scientific, cat. 11765054), 100 U/mL penicillin-streptomycin (Thermo Fisher Scientific, cat. 15140122), and 2.5% Matrigel (Corning Inc., Corning, NY, cat. 354248) for the first three passages. The two PDC lines 997537-175-T-J1-PDC and 415267-285-R-J2-PDC were cultured on uncoated flasks. The 857933-349-R-J2-PDC line was cultured in 6C/Colon 1B media containing advanced DMEM/F-12 (Thermo Fisher Scientific, cat. 12634028), 10 mM HEPES (Thermo Fisher Scientific, cat. 15630080), 1X GlutaMAX supplement (Thermo Fisher Scientific, cat. 35050061), 0.1 mg/mL primocin (InvivoGen, San Diego, CA, cat. ant-pm-2), 10% defined fetal bovine serum, heat inactivated (HyClone Laboratories Inc., Logan, UT, cat. SH30070.03HI), 50% L-WRN conditioned media (ATCC, cat. CRL-3276), 1.25 mM N-Acetyl-L-cysteine (Sigma-Aldrich, cat. A9165), 10 mM nicotinamide (Sigma-Aldrich, cat. N0636), 1X B-27 supplement (Thermo Fisher Scientific, cat. 17504044), 1X N-2 supplement (Thermo Fisher Scientific, cat. […]

[1] = curve of first compound, second compound 0.0316 µM
[2] = curve of first compound, second compound 0.1 µM
[3] = curve of first compound, second compound 0.316 µM
[4] = curve of first compound, second compound 1 µM
[5] = curve of first compound, second compound 3.16 µM
[6] = curve of first compound, second compound 10 µM
[7] = second compound 0.0316 µM, first compound 0.0316 µM
[8] = second compound 0.0316 µM, first compound 0.1 µM
[9] = second compound 0.0316 µM, first compound 0.316 µM
[10] = second compound 0.0316 µM, first compound 1 µM
[11] = second compound 0.0316 µM, first compound 3.16 µM
[12] = second compound 0.0316 µM, first compound 10 µM
[13] = second compound 0.1 µM, first compound 0.0316 µM
[14] = second compound 0.1 µM, first compound 0.1 µM
[15] = second compound 0.1 µM, first compound 0.316 µM
[16] = second compound 0.1 µM, first compound 1 µM
[17] = second compound 0.1 µM, first compound 3.16 µM
[18] = second compound 0.1 µM, first compound 10 µM
[19] = second compound 0.316 µM, first compound 0.0316 µM
[20] = second compound 0.316 µM, first compound 0.1 µM
[21] = second compound 0.316 µM, first compound 0.316 µM
[22] = second compound 0.316 µM, first compound 1 µM
[23] = second compound 0.316 µM, first compound 3.16 µM
[24] = second compound 0.316 µM, first compound 10 µM
[25] = second compound 1 µM, first compound 0.0316 µM
[26] = second compound 1 µM, first compound 0.1 µM
[27] = second compound 1 µM, first compound 0.316 µM
[28] = second compound 1 µM, first compound 1 µM
[29] = second compound 1 µM, first compound 3.16 µM
[30] = second compound 1 µM, first compound 10 µM
[31] = second compound 3.16 µM, first compound 0.0316 µM
[32] = second compound 3.16 µM, first compound 0.1 µM
[33] = second compound 3.16 µM, first compound 0.316 µM
[34] = second compound 3.16 µM, first compound 1 µM
[35] = second compound 3.16 µM, first compound 3.16 µM
[36] = second compound 3.16 µM, first compound 10 µM
[37] = second compound 10 µM, first compound 0.0316 µM
[38] = second compound 10 µM, first compound 0.1 µM
[39] = second compound 10 µM, first compound 0.316 µM
[40] = second compound 10 µM, first compound 1 µM
[41] = second compound 10 µM, first compound 3.16 µM
[42] = second compound 10 µM, first compound 10 µM
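Also: spheroids exposed to compounds for one week.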
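For viability, T/C in this document: 100% = vehicle DMSO treated spheroids.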

COc1cc(C2c3cc4c(cc3C(OC3OC5COC(C)OC5C(O)C3O)C3COC(=O)C23)OCO4)cc(OC)c1O (stereo unspecified) + Cc1cccc(N(C)C(=O)C2C(O)CCN2c2nc(C)cc(C(F)(F)F)c2C#N)c1
pIC50 [1]: 6.11 | pIC50 [2]: 6.06 | pIC50 [3]: 6.04 | pIC50 [4]: 6.09 | pIC50 [5]: 6.19 | pIC50 [6]: 6.09 | viability, T/C [7]: 99.4% | viability, T/C [8]: 101% | viability, T/C [9]: 60.8% | viability, T/C [10]: 47% | viability, T/C [11]: 26.6% | viability, T/C [12]: 10.5% | viability, T/C [13]: 103% | viability, T/C [14]: 87.7% | viability, T/C [15]: 63.3% | viability, T/C [16]: 54.3% | viability, T/C [17]: 23% | viability, T/C [18]: 10.7% | viability, T/C [19]: 107% | viability, T/C [20]: 90.6% | viability, T/C [21]: 68.6% | viability, T/C [22]: 52.4% | viability, T/C [23]: 22.5% | viability, T/C [24]: 8.11% | viability, T/C [25]: 114% | viability, T/C [26]: 86.1% | viability, T/C [27]: 62.6% | viability, T/C [28]: 50.1% | viability, T/C [29]: 23.7% | viability, T/C [30]: 9.86% | viability, T/C [31]: 104% | viability, T/C [32]: 88.7% | viability, T/C [33]: 52% | viability, T/C [34]: 50.7% | viability, T/C [35]: 22% | viability, T/C [36]: 10.1% | viability, T/C [37]: 107% | viability, T/C [38]: 83.3% | viability, T/C [39]: 65.8% | viability, T/C [40]: 52.7% | viability, T/C [41]: 21.5% | viability, T/C [42]: 14.7%

COc1cc2cc(C(=O)CCC(=O)O)sc2cc1OC + COC1C(OC(N)=O)C(O)C(Oc2ccc3c(O)c(NC(=O)c4ccc(O)c(CC=C(C)C)c4)c(=O)oc3c2C)OC1(C)C
pIC50 [1]: < 5.00 | pIC50 [2]: < 5.00 | pIC50 [3]: < 5.00 | pIC50 [4]: < 5.00 | pIC50 [5]: < 5.00 | pIC50 [6]: < 5.00 | viability, T/C [7]: 104% | viability, T/C [8]: 99.5% | viability, T/C [9]: 103% | viability, T/C [10]: 96.9% | viability, T/C [11]: 105% | viability, T/C [12]: 102% | viability, T/C [13]: 110% | viability, T/C [14]: 99.6% | viability, T/C [15]: 97.5% | viability, T/C [16]: 107% | viability, T/C [17]: 106% | viability, T/C [18]: 102% | viability, T/C [19]: 113% | viability, T/C [20]: 106% | viability, T/C [21]: 98.8% | viability, T/C [22]: 102% | viability, T/C [23]: 111% | viability, T/C [24]: 102% | viability, T/C [25]: 109% | viability, T/C [26]: 102% | viability, T/C [27]: 104% | viability, T/C [28]: 109% | viability, T/C [29]: 105% | viability, T/C [30]: 102% | viability, T/C [31]: 108% | viability, T/C [32]: 104% | viability, T/C [33]: 114% | viability, T/C [34]: 110% | viability, T/C [35]: 109% | viability, T/C [36]: 103% | viability, T/C [37]: 112% | viability, T/C [38]: 101% | viability, T/C [39]: 109% | viability, T/C [40]: 99% | viability, T/C [41]: 111% | viability, T/C [42]: 111%

O=C(c1cc(Cc2n[nH]c(=O)c3ccccc23)ccc1F)N1CCN(C(=O)C2CC2)CC1
viability, T/C (compound 0.0316 µM): 102% and 15.6% and 95.7% | viability, T/C (compound 0.1 µM): 100% and 20.2% and 94.9% | viability, T/C (compound 0.316 µM): 104% and 16.8% and 106% | viability, T/C (compound 1 µM): 105% and 20.7% and 100% | viability, T/C (compound 3.16 µM): 97.5% and 14.8% and 101% | viability, T/C (compound 10 µM): 77.8% and 12.2% and 58.9%

C#Cc1c(F)ccc2cc(O)cc(-c3ncc4c(N5CC6CCC(C5)N6)nc(OCC56CCCN5CC(F)C6)nc4c3F)c12 (stereo unspecified)
viability, T/C (compound 0.0316 µM): 109% and 110% and 105% | viability, T/C (compound 0.1 µM): 105% and 104% and 101% | viability, T/C (compound 0.316 µM): 99.2% and 115% and 96.7% | viability, T/C (compound 1 µM): 105% and 96.8% and 101% | viability, T/C (compound 3.16 µM): 107% and 113% and 97.8% | viability, T/C (compound 10 µM): 102% (2×) and 80.7% | pIC50 (curve of compound): < 5.00

C=CCn1c(=O)c2cnc(Nc3ccc(N4CCN(C)CC4)cc3)nc2n1-c1cccc(C(C)(C)O)n1
viability, T/C (compound 0.00316 µM): 109% and 100% and 106% | viability, T/C (compound 0.01 µM): 115% and 89.1% and 99% | viability, T/C (compound 0.0316 µM): 105% and 97.8% and 107% | viability, T/C (compound 0.1 µM): 103% and 90.1% and 87.8% | viability, T/C (compound 0.316 µM): 103% and 74.6% and 85.4% | viability, T/C (compound 1 µM): 64.8% and 36% and 39% | pIC50 (curve of compound): < 6.00 and 6.18 and 6.12

CCc1cc2c(N3CCc4c(cc(Cn5ccnc5)cc4-c4cn(C)nc4C(F)(F)F)C3=O)cc(C)nc2c(OC)n1
viability, T/C (compound 0.0316 µM): 108% and 84.9% and 95.3% | viability, T/C (compound 0.1 µM): 104% and 93.7% and 115% | viability, T/C (compound 0.316 µM): 100% and 83.8% and 86.7% | viability, T/C (compound 1 µM): 85.4% and 79.7% and 96.4% | viability, T/C (compound 3.16 µM): 76.5% and 55.1% and 70.1% | viability, T/C (compound 10 µM): 56.7% and 37.7% and 41.4% | pIC50 (curve of compound): < 5.00 and 5.35 and 5.15
